Laboratory results from PMC7005646, “Overcoming resistance to anabolic SARM therapy in experimental cancer cachexia with an HDAC inhibitor” (EMBO Molecular Medicine, 2020).

Legend:
C‐26 tumor‐bearing mice [1] = assay: Combined androgen and AR‐42 study (Study 4), C‐26 model; type: in vivo, mouse
Procedure: These studies were performed as previously described (Tseng et al, 2015a) with modifications. Tumors were established in the right flank of CD2F1 mice by subcutaneous injection of C‐26 cells (0.5 × 10^6 cells in 0.1 ml). […] TFM‐4AS‐1 (a potent experimental SARM), DHT, and vehicles were administered by subcutaneous injection.
Similar to Study 2, the tumor‐free control group was maintained at six animals, whereas 10 animals were included in each of the 6 tumor‐bearing groups. Six days after cell injection, animals with palpable tumors were treated once daily for 13 days with vehicles for AR‐42 and TFM‐4AS‐1/DHT (n = 9), AR‐42 (10 mg/kg; TFM‐4AS‐1/DHT vehicle; n = 10), TFM‐4AS‐1 (10 mg/kg; AR‐42 vehicle; n = 9), DHT (3 mg/kg; AR‐42 vehicle; n = 10), the combination of AR‐42 and TFM‐4AS‐1 (10 mg/kg each; n = 9), or the combination of AR‐42 (10 mg/kg) and DHT (3 mg/kg; n = 10). Grip strength was measured, and tissues were collected as in the previous studies.
Forelimb grip strength was measured using Bio‐GS3 Grip Strength Test Meter (Forceleader DBA Bioseb, Pinellas Park, FL). Each mouse was held by the base of its tail and lowered over the apparatus until its forepaws grasped the metal pull bar. […] The force applied to the bar at the moment of release was recorded as the peak force. […]

C‐26 cells = assay: Cell viability assay (CCK‐8); type: cell-based, mouse; conditions: up to 10 µM, 48 hours
Procedure: Cell viability assays were conducted using the CCK‐8 kit (Dojindo Molecular Technologies, Inc; Kumamoto, Japan). Briefly, 1,250 cells per well were plated on 96‐well plates and allowed to adhere overnight.

C‐26 tumor‐bearing mice [2] = assay: Initial AR‐42/GTx‐024 combination study (Study 1), male C‐26 tumor‐bearing mice; type: in vivo, mouse
LLC tumor‐bearing mice = assay: AR‐42/GTx‐024 combination study in the LLC cachexia model (Study 5); type: in vivo, mouse
Procedure: This study was performed as previously described (Tseng et al, 2015a) with modifications. Tumors were established in the right hindlimb of male C57BL/6NHsd mice by intramuscular injection of LLC cells (0.5 × 10^6 cells in 0.05 ml). Similar to Study 3, the tumor‐free control group was maintained at six animals, whereas 12 animals were included in each of the tumor‐bearing groups. […] Grip strength, body weight, and food consumption were measured, and tissues were collected as in the previous C‐26 studies.

[3] = GTx‐024 plasma pharmacokinetics, LLC tumor‐bearing C57BL/6NHsd mice; type: in vivo, mouse
Procedure: Blood was collected by cardiac puncture into heparinized tubes (BD Microtainer, Becton, Dickinson and Company, Franklin Lakes, NJ, USA) and immediately centrifuged at room temperature for 3 min at 4,200 RCF. Plasma was removed and placed on dry ice prior to storage at −80°C until analysis. Bioanalytical analyses were conducted as previously described (Cheng et al, 2016) by Charles River Laboratories, Inc. (Wilmington, MA, USA). Non‐compartmental analysis was performed using the PKNCA package in R version 3.6.0.

serum cytokines = assay: Serum cytokine panel (multiplex), terminal samples from Study 2; type: in vivo, mouse; conditions: GTx‐024 15 mg/kg, mean ± SD
Procedure: This confirmatory study was performed exactly as Study 1 with expanded animal numbers. Tumor‐free control groups were maintained at 6 animals each, whereas 10 animals were included in each of the tumor‐bearing groups. […] Grip strength was measured on study days 0 (baseline) and 16. Due to rapid model progression, this study was terminated on day 17 after only 12 days of treatment.
Serum cytokine panel analyses were performed by a commercial vendor (Eve Technologies, Calgary, Canada) as previously described (Tseng et al, 2015a). Serum interleukin‐6 (IL‐6) was measured using a commercial ELISA kit (R&D Systems, Minneapolis, MN, USA) according to the manufacturer's instructions.

pSTAT3 (Y705) = assay: pSTAT3/tSTAT3 Western blot of gastrocnemius muscle; type: in vivo, mouse
Procedure: Western blots from all studies were performed on gastrocnemius muscle from representative animals lysed by Nonidet P‐40 isotonic lysis buffer [50 mM Tris–HCl, pH 7.5, 120 mM NaCl, 1% (v/v) Nonidet P‐40, 1 mM EDTA, 50 mM NaF, 40 mM glycerophosphate, and […] each of protease inhibitors (aprotinin, pepstatin, and leupeptin)]. Equivalent amounts of protein from each sample, as determined by the Bradford assay (Bio‐Rad), were resolved by SDS–PAGE and then transferred (semi‐dry) onto Immobilon nitrocellulose membranes (Millipore, Bellerica, MA). Membranes were washed twice with TBST [Tris‐buffered saline (TBS) containing 0.1% Tween‐20], blocked with 5% non‐fat milk in TBST for 1 h, and then washed an additional three times. Membranes were incubated with specific primary antibody in TBST (1:1,000) at 4°C overnight, washed three times (TBST), and then incubated with appropriate goat anti‐rabbit or anti‐mouse IgG–horseradish peroxidase‐conjugated secondary antibodies (1:5,000) at room temperature (1 h). Following additional washes (TBST), immunoblots were visualized as appropriate by ECL chemiluminescence (Amersham Biosciences, Little Chalfont, United Kingdom) or Duration HRP Chemiluminescence (Alkali Scientific, Florida, United States). Primary antibodies: phospho‐STAT3 (Tyr705) (D3A7) XP® rabbit mAb #9145, STAT3 (124H6) mouse mAb #9139 (Cell Signaling Technology, Danvers, MA); α‐tubulin (B‐7), sc‐5286 (Santa Cruz Biotechnologies, Santa Cruz, CA); androgen receptor (EP670Y), ab52615 (Abcam, Cambridge, MA) and GAPDH (6C5), sc‐32233 (Santa Cruz Biotechnologies, Santa Cruz, CA).

[4] = system: serum‐luteinizing hormone; assay: Serum luteinizing hormone radioimmunoassay, Study 1; type: in vivo, mouse; conditions: Study 1, day 18, 15 mg/kg, C‐26 tumor‐bearing mice
Procedure: Luteinizing hormone was measured in serum by a two‐site sandwich radioimmunoassay performed by the Ligand Assay and Analysis Core at the Center for Research in Reproduction, University of Virginia School of Medicine (Charlottesville, VA). Serum was isolated by centrifugation (2,000 g, 15 min) from whole blood samples collected from mice immediately post‐mortem, and then stored at −80°C until shipment on dry ice.

[5] = male rats, 0.5 mpk; ref Xenobiotica. 2013 Nov;43(11):993-1009; cited from earlier work
[6] = Study 1, male, day 18, GTx‐024 15 mg/kg, AR‐42 10 mg/kg, or both
[7] = male, C57BL/6NHsd, mouse, single 15 mg/kg oral dose, plasma
[8] = C‐26 Tumor‐bearing, AR‐42 10 mg/kg, or both

## C[C@]12CCC(=O)C[C@@H]1CC[C@@H]1[C@@H]2CC[C@]2(C)[C@@H](O)CC[C@@H]12 [DHT, dihydrotestosterone]
C‐26 tumor‐bearing mice [1]; Study 4, DHT alone 3 mg/kg, after 8 days of administration
  C‐26 tumor growth: tumor growth was significantly suppressed
C‐26 cells
  direct effects on C‐26 cell viability: did not detect direct effects

## C[C@](O)(COc1ccc(C#N)cc1)C(=O)Nc1ccc(C#N)c(C(F)(F)F)c1 [GTx‐024, (S)‐N‐(4‐cyano‐3‐(trifluoromethyl)phenyl)‐3‐(4‐cyanophenoxy)‐2‐hydroxy‐2‐methylpropanamide]
C‐26 tumor‐bearing mice [2]; Study 1, 15 mg/kg daily oral
  body weight in tumor‐free controls: did not cause body weight loss
C‐26 tumor‐bearing mice [2]; Study 1, male, day 18, 13 days daily oral, GTx‐024 15 mg/kg, AR‐42 10 mg/kg, or both
  terminal body weight corrected for tumor mass: 79.0 ± 11.2 % of tumor‐free controls
C‐26 tumor‐bearing mice [2]; [6]
  terminal gastrocnemius mass: 84 ± 11.3 % of tumor‐free controls
  terminal quadriceps mass: 80.0 ± 9.1 % of tumor‐free controls
LLC tumor‐bearing mice; Study 5, 15 mg/kg daily oral
  LLC tumor growth: stimulated LLC tumor growth
LLC tumor‐bearing mice; repeat of Study 5, 0.5 mg/kg daily oral
  LLC tumor growth: did not promote LLC tumor growth
LLC tumor‐bearing mice; repeat of Study 5, 10 mg/kg AR‐42, 0.5 mg/kg GTx‐024, or both
  response of body weight and skeletal muscle mass loss: did not respond
[3]; 28.8 vs 4.3 ug*hr/mL
  projected mouse exposure at 0.5 mpk over rat exposure at 0.5 mpk: 6.7 fold
[3]; 30‐fold dose reduction from 15 mg/kg, mouse
  exposure projected for 0.5 mg/kg: ~ 28.8 μg*h/ml
[3]; [7]
  AUC(0-inf): 863 µg·h/mL
  AUC(0-t): 721 µg·h/mL
  Cmax: 25800 ng/mL
  half-life: 18.1 h
Serum cytokines; [8]
  GM‐CSF, serum: 17.35 ± 4.33 pg/mL
  G‐CSF, serum: 2446.63 ± 1625.70 pg/mL
  IL‐6, serum: 397.54 ± 341.43 pg/mL
  IL‐17, serum: 1.75 ± 1.28 pg/mL
  IP‐10, serum: 154.76 ± 17.98 pg/mL
  KC, serum: 288.89 ± 154.46 pg/mL
  LIF, serum: 45.26 ± 21.57 pg/mL
  LIX, serum: 5234.39 ± 4771.34 pg/mL
  M‐CSF, serum: 22.23 ± 9.45 pg/mL
Serum cytokines; Tumor‐free
  GM‐CSF, serum: 13.27 ± 4.62 pg/mL
  G‐CSF, serum: 338.39 ± 71.70 pg/mL
  IL‐6, serum: 2.45 ± 1.31 pg/mL
  IL‐17, serum: 5.01 ± 1.18 pg/mL
  IP‐10, serum: 145.68 ± 48.83 pg/mL
  KC, serum: 90.02 ± 17.69 pg/mL
  LIF, serum: 2.50 ± 2.34 pg/mL
  LIX, serum: 1316.67 ± 1662.66 pg/mL
  M‐CSF, serum: 27.23 ± 10.09 pg/mL
C‐26 cells
  direct effects on C‐26 cell viability: did not detect differences in the direct effects
pSTAT3 (Y705); female C‐26 tumor‐bearing mice, Study 3
  pSTAT3 in gastrocnemius: reduced levels of pSTAT3 activation
pSTAT3 (Y705); male C‐26 tumor‐bearing mice, Study 1
  pSTAT3 in gastrocnemius: no apparent effect
[4]
  serum‐luteinizing hormone: suppressed serum‐luteinizing hormone
[5]
  AUCinf: approximately 4.3 ug*hr/mL

## CN1C(=O)C=C[C@]2(C)[C@H]3CC[C@]4(C)[C@@H](C(=O)Nc5ccccc5C(F)(F)F)CC[C@H]4[C@@H]3CC[C@@H]12 [TFM‐4AS‐1]
C‐26 tumor‐bearing mice [1]; Study 4, monotherapy 10 mg/kg subcutaneous
  sparing of body weight or mass of gastrocnemius or quadriceps: did not spare body weight
